# Source: ChEMBL document CHEMBL4699440, “Comprehensive review on the anti-bacterial activity of 1,2,3-triazole hybrids” (Eur J Med Chem, 2019)
# Key:
# [1] = test system: Bacillus subtilis; assay: Antibacterial activity against Bacillus subtilis ATCC 6051 incubated for 24 hrs by broth microdilution method; assay type: functional
# [2] = test system: Escherichia coli; assay: Antibacterial activity against Escherichia coli ATCC 25922 incubated for 24 hrs by broth microdilution method; assay type: functional
# [3] = test system: Pseudomonas aeruginosa; assay: Antibacterial activity against Pseudomonas aeruginosa ATCC 25619 incubated for 24 hrs by broth microdilution method; assay type: functional
# [4] = test system: Staphylococcus aureus; assay: Antibacterial activity against Staphylococcus aureus ATCC 12598 incubated for 24 hrs by broth microdilution method; assay type: functional
# [5] = test system: Escherichia coli; assay: Antibacterial activity against Escherichia coli MTCC […] by serial dilution method; assay type: functional
# [6] = test system: Bacillus subtilis; assay: Antibacterial activity against Bacillus subtilis MTCC 441 by serial dilution method; assay type: functional
# [7] = test system: Staphylococcus epidermidis; assay: Antibacterial activity against Staphylococcus epidermidis MTCC 6880 by serial dilution method; assay type: functional
# [8] = test system: Aspergillus niger; assay: Antibacterial activity against Aspergillus niger MTCC 8189 by serial dilution method; assay type: functional
# [9] = test system: Pseudomonas aeruginosa; assay: Antibacterial activity against Pseudomonas aeruginosa MTCC 424 by serial dilution method; assay type: functional
# [10] = test system: Candida albicans; assay: Antibacterial activity against Candida albicans MTCC 227 by serial dilution method; assay type: functional
# [11] = test system: Escherichia coli; assay: Antibacterial activity against Escherichia coli assessed as inhibition zone at 10 mg/ml; assay type: functional; details: read-out: IZ
# [12] = test system: Klebsiella pneumoniae; assay: Antibacterial activity against Klebsiella pneumoniae assessed as inhibition zone at 10 mg/ml; assay type: functional; details: read-out: IZ
# [13] = test system: Proteus vulgaris; assay: Antibacterial activity against Proteus vulgaris assessed as inhibition zone at 10 mg/ml; assay type: functional; details: read-out: IZ
# [14] = test system: Salmonella typhi; assay: Antibacterial activity against Salmonella typhi assessed as inhibition zone at 10 mg/ml; assay type: functional, Salmonella enterica subsp. enterica serovar Typhi; details: Salmonella enterica, read-out: IZ
# [15] = test system: Pseudomonas aeruginosa; assay: Antibacterial activity against Pseudomonas aeruginosa assessed as inhibition zone at 10 mg/ml; assay type: functional; details: read-out: IZ
SMILES,MIC [1],MIC [2],MIC [3],MIC [4],MIC [5],MIC [6],MIC [7],MIC [8],MIC [9],MIC [10],zone of inhibition at 10000 µg/mL [11],zone of inhibition at 10000 µg/mL [12],zone of inhibition at 10000 µg/mL [13],zone of inhibition at 10000 µg/mL [14],zone of inhibition at 10000 µg/mL [15]
CN[C@@H]1[C@H](O[C@H]2[C@H](O[C@H]3[C@H](O)[C@@H](O)[C@H](N=C(N)N)[C@@H](O)[C@@H]3N=C(N)N)O[C@@H](C)[C@]2(O)C=O)O[C@@H](CO)[C@H](O)[C@H]1O [STREPTOMYCIN],2 µg/mL,2 µg/mL,4 µg/mL,2 µg/mL,,,,,,,,,,,
Cc1cc(O)c(C(=O)/C=C/c2ccc(OCc3cn(Cc4ccccc4C)nn3)cc2)c(=O)o1,,,,,3 µM,3 µM,3 µM,3 µM,3 µM,3 µM,,,,,
Clc1nc2ccccc2cc1Cn1cc(COc2ccccc2)nn1,,,,,,,,,,,7 mm,7 mm,7 mm,7 mm,7 mm
Cc1cccc(Cn2cc(COc3ccc(/C=C/C(=O)c4c(O)cc(C)oc4=O)cc3)nn2)c1,,,,,3 µM,3 µM,3 µM,3 µM,3 µM,3 µM,,,,,
Cc1cc(OCc2cn(Cc3cc4ccccc4nc3Cl)nn2)ccc1Cl,,,,,,,,,,,7 mm,7 mm,7 mm,7 mm,7 mm
COc1ccc2nc(Cl)c(Cn3cc(COc4ccccc4)nn3)cc2c1,,,,,,,,,,,7 mm,7 mm,7 mm,7 mm,7 mm
Cc1cc(O)c(C(=O)/C=C/c2ccc(OCc3cn(-c4ccc([N+](=O)[O-])cc4)nn3)cc2)c(=O)o1,,,,,3 µM,3 µM,3 µM,3 µM,3 µM,3 µM,,,,,
Clc1ccccc1OCc1cn(Cc2cc3ccccc3nc2Cl)nn1,,,,,,,,,,,7 mm,7 mm,7 mm,7 mm,7 mm
COc1ccc2nc(Cl)c(Cn3cc(COc4ccc(Cl)cc4)nn3)cc2c1,,,,,,,,,,,7 mm,7 mm,7 mm,7 mm,7 mm
COc1ccc2nc(Cl)c(Cn3cc(COc4ccc([N+](=O)[O-])cc4)nn3)cc2c1,,,,,,,,,,,7 mm,7 mm,7 mm,7 mm,7 mm
Cc1cc(O)c(C(=O)/C=C/c2ccc(OCc3cn(Cc4cccc(Br)c4)nn3)cc2)c(=O)o1,,,,,3 µM,3 µM,3 µM,3 µM,3 µM,3 µM,,,,,
Cc1ccc(OCc2cn(Cc3cc4cc(C)ccc4nc3Cl)nn2)cc1,,,,,,,,,,,7 mm,7 mm,7 mm,7 mm,7 mm
Cc1cc(O)c(C(=O)/C=C/c2ccc(OCc3cn(-c4ccc(Br)cc4)nn3)cc2)c(=O)o1,,,,,3 µM,3 µM,3 µM,3 µM,3 µM,3 µM,,,,,
Cc1ccc(OCc2cn(Cc3cc4ccccc4nc3Cl)nn2)cc1,,,,,,,,,,,7 mm,7 mm,7 mm,7 mm,7 mm
Cc1ccc2nc(Cl)c(Cn3cc(COc4ccc([N+](=O)[O-])cc4)nn3)cc2c1,,,,,,,,,,,7 mm,7 mm,7 mm,7 mm,7 mm
Cc1cc(O)c(C(=O)/C=C/c2ccc(OCc3cn(Cc4ccc(F)cc4)nn3)cc2)c(=O)o1,,,,,3 µM,3 µM,3 µM,3 µM,3 µM,3 µM,,,,,
COc1ccc(-n2cc(COc3ccc(/C=C/C(=O)c4c(O)cc(C)oc4=O)cc3)nn2)cc1,,,,,3.4 µM,3.4 µM,3.4 µM,3.4 µM,3.4 µM,3.4 µM,,,,,
Cc1cc(O)c(C(=O)/C=C/c2ccc(OCc3cn(Cc4ccccc4Br)nn3)cc2)c(=O)o1,,,,,3 µM,3 µM,3 µM,3 µM,3 µM,3 µM,,,,,
Cc1ccc2nc(Cl)c(Cn3cc(COc4ccc(Cl)cc4)nn3)cc2c1,,,,,,,,,,,7 mm,7 mm,7 mm,7 mm,7 mm
